Test results: patent US12408664B2 (priority 2018, dated 2025)
Read-outs that look alike come from different tables or passages of the source.

Experiments:
S. homoeocarpa [1] = assay: New inoculants in MEB liquid culture amended with calcium propionate; assay type: cell-based, Scerotinia homoeocarpa; conditions: MEB with 1, 2, 5 and 10% (w/v) calcium propionate; five days
Method: To examine the effective dose range in liquid culture, malt extract broth (MEB) was prepared and amended with calcium propionate at concentrations of 1, 2, 5 and 10% (w/v). Unamended MEB was used as a control for growth. Each of the four microbes identified in Example 1 was tested twice by inoculating MEB using agarose plugs from luxuriant cultures. Growth was observed over five days. In each microbe examined, visible growth in liquid culture was apparent by day 2 following inoculation with well-established growth by 4 days in the absence of calcium propionate.

S. homoeocarpa [2] = assay: Growth on PDA with calcium propionate fully integrated into the agarose; assay type: cell-based, Scerotinia homoeocarpa; conditions: for Growth, S. homeocarpa: single plate
Method: In contrast to the zone of inhibition assays described in Examples 1-3, for this experiment, PDA with calcium propionate fully integrated into the agarose was prepared. Thus, inoculants were grown on plates in which calcium propionate was incorporated at a uniform concentration throughout the plate, rather than the zones of concentration established by simple diffusion in the zone of inhibition assays. The PDA plates were amended with 5, 7.5, 10, or 12% (w/v) calcium propionate. Growth diameter was recorded for 15 days post inoculation. The data shown in Table 3 represent the results of single plate tests.

S. homoeocarpa [3] = assay: Plug transfer to PDA plates without calcium propionate (fungistatic or fungicidal); assay type: cell-based, Scerotinia homoeocarpa
turfgrass = assay: Golf Course 1: appearance of treated turfgrass; assay type: in vivo, Festuca rubra; conditions: after 10 days
Method: Calcium propionate was dissolved in water to form a 5% (w/v) solution. […] Zone 1 was left untreated, Zone 2 was treated with 2.5 grams calcium propionate per square meter, Zone 3 was treated with 5 grams of calcium propionate per square meter, and Zone 4 was treated with 10 grams of calcium propionate per square meter. The turfgrass was comprised primarily of Festuca rubra. The calcium propionate 5% (w/v) solution was sprayed onto the turfgrass.
The four zones were visually inspected for dollar spot after 10 days. […] In contrast, dollar spot could, still be visually detected in untreated Zone 1.

S. homoeocarpa [4] = assay: Established liquid cultures, two days calcium propionate then washout; assay type: cell-based, Scerotinia homoeocarpa
Method: To further examine the impact of calcium propionate on established liquid cultures, MEB was inoculated by plug transfer and cultures were allowed to grow for one to six days. Following this, calcium propionate was added to active cultures to a final concentration of 1%, 2%, or 5% (w/v); control cultures had no calcium propionate. Calcium propionate was then added to established one to six day old cultures and cultures were allowed to grow in the presence of calcium propionate for two days, after which, calcium propionate was washed out and cultures were returned to MEB only. Growth following calcium propionate washout was recorded over 14 days.

M. poae = assay type: cell-based, Magnaporthe poae
[5] = any of the concentrations tested (5, 7.5, 10, 12% w/v), 15 days

CCC(=O)[O-].CCC(=O)[O-].[Ca+2] [calcium propionate]
growth in liquid culture, S. homoeocarpa (S. homoeocarpa [1]): no growth was observed
Growth, S. homeocarpa (S. homoeocarpa [2]; PDA with 5% (w/v) calcium propionate, day 4): 0 cm
Growth, S. homeocarpa (S. homoeocarpa [2]; PDA with 5% (w/v) calcium propionate, day 5): 0 cm
Growth, S. homeocarpa (S. homoeocarpa [2]; PDA with 5% (w/v) calcium propionate, day 8): 0 cm
Growth, S. homeocarpa (S. homoeocarpa [2]; PDA with 5% (w/v) calcium propionate, day 11): 0 cm
Growth, S. homeocarpa (S. homoeocarpa [2]; PDA with 5% (w/v) calcium propionate, day 15): 0 cm
Growth, S. homeocarpa (S. homoeocarpa [2]; PDA with 7.5% (w/v) calcium propionate, day 4): 0 cm
Growth, S. homeocarpa (S. homoeocarpa [2]; PDA with 7.5% (w/v) calcium propionate, day 5): 0 cm
Growth, S. homeocarpa (S. homoeocarpa [2]; PDA with 7.5% (w/v) calcium propionate, day 8): 0 cm
Growth, S. homeocarpa (S. homoeocarpa [2]; PDA with 7.5% (w/v) calcium propionate, day 11): 0 cm
Growth, S. homeocarpa (S. homoeocarpa [2]; PDA with 7.5% (w/v) calcium propionate, day 15): 0 cm
Growth, S. homeocarpa (S. homoeocarpa [2]; PDA with 10% (w/v) calcium propionate, day 4): 0 cm
Growth, S. homeocarpa (S. homoeocarpa [2]; PDA with 10% (w/v) calcium propionate, day 5): 0 cm
Growth, S. homeocarpa (S. homoeocarpa [2]; PDA with 10% (w/v) calcium propionate, day 8): 0 cm
Growth, S. homeocarpa (S. homoeocarpa [2]; PDA with 10% (w/v) calcium propionate, day 11): 0 cm
Growth, S. homeocarpa (S. homoeocarpa [2]; PDA with 10% (w/v) calcium propionate, day 15): 0 cm
Growth, S. homeocarpa (S. homoeocarpa [2]; PDA with 12% (w/v) calcium propionate, day 4): 0 cm
Growth, S. homeocarpa (S. homoeocarpa [2]; PDA with 12% (w/v) calcium propionate, day 5): 0 cm
Growth, S. homeocarpa (S. homoeocarpa [2]; PDA with 12% (w/v) calcium propionate, day 8): 0 cm
Growth, S. homeocarpa (S. homoeocarpa [2]; PDA with 12% (w/v) calcium propionate, day 11): 0 cm
Growth, S. homeocarpa (S. homoeocarpa [2]; PDA with 12% (w/v) calcium propionate, day 15): 0 cm
growth, S. homoeocarpa (S. homoeocarpa [2]; [5]): no growth
fungistatic or fungicidal effect, S. homoeocarpa (S. homoeocarpa [3]; 5% (w/v) calcium propionate): fungicidal effect
growth on unamended PDA after plug transfer, S. homoeocarpa (S. homoeocarpa [3]; plugs initially grown on 5, 7.5, 10 or 12% (w/v) calcium propionate, observed 14 days): No growth was seen
appearance of the turfgrass (turfgrass; Zone 2: 2.5 grams per square meter): appeared healthy
appearance of the turfgrass (turfgrass; Zone 3: 5 grams per square meter): appeared healthy
effect on the turfgrass (turfgrass; Zone 4: 10 grams per square meter): burning effect
growth recovery over 14 days after removal, S. homoeocarpa (S. homoeocarpa [4]; 1% or 2% (w/v) calcium propionate): varying degrees of growth recovery
growth while calcium propionate was present, S. homoeocarpa (S. homoeocarpa [4]; 1%, 2% or 5% (w/v), established one to six day old cultures, two days): growth was inhibited
growth recovery over 14 days after removal, S. homoeocarpa (S. homoeocarpa [4]; 5% (w/v) treatment): no growth recovery was observed
growth three days following removal of calcium propionate, S. homoeocarpa (S. homoeocarpa [4]; all concentrations tested (1-5% w/v)): continued growth inhibition
Growth, M. Poae (M. poae; PDA with 5% (w/v) calcium propionate, day 4, single plate): 0 cm
Growth, M. Poae (M. poae; PDA with 5% (w/v) calcium propionate, day 5, single plate): 0 cm
Growth, M. Poae (M. poae; PDA with 5% (w/v) calcium propionate, day 8, single plate): 0 cm
Growth, M. Poae (M. poae; PDA with 5% (w/v) calcium propionate, day 11, single plate): 0 cm
Growth, M. Poae (M. poae; PDA with 5% (w/v) calcium propionate, day 15, single plate): 0 cm
Growth, M. Poae (M. poae; PDA with 7.5% (w/v) calcium propionate, day 4, single plate): 0 cm
Growth, M. Poae (M. poae; PDA with 7.5% (w/v) calcium propionate, day 5, single plate): 0 cm
Growth, M. Poae (M. poae; PDA with 7.5% (w/v) calcium propionate, day 8, single plate): 0 cm
Growth, M. Poae (M. poae; PDA with 7.5% (w/v) calcium propionate, day 11, single plate): 0 cm
Growth, M. Poae (M. poae; PDA with 7.5% (w/v) calcium propionate, day 15, single plate): 0 cm
Growth, M. Poae (M. poae; PDA with 10% (w/v) calcium propionate, day 4, single plate): 0 cm
Growth, M. Poae (M. poae; PDA with 10% (w/v) calcium propionate, day 5, single plate): 0 cm
Growth, M. Poae (M. poae; PDA with 10% (w/v) calcium propionate, day 8, single plate): 0 cm
Growth, M. Poae (M. poae; PDA with 10% (w/v) calcium propionate, day 11, single plate): 0 cm
Growth, M. Poae (M. poae; PDA with 10% (w/v) calcium propionate, day 15, single plate): 0 cm
Growth, M. Poae (M. poae; PDA with 12% (w/v) calcium propionate, day 4, single plate): 0 cm
Growth, M. Poae (M. poae; PDA with 12% (w/v) calcium propionate, day 5, single plate): 0 cm
Growth, M. Poae (M. poae; PDA with 12% (w/v) calcium propionate, day 8, single plate): 0 cm
Growth, M. Poae (M. poae; PDA with 12% (w/v) calcium propionate, day 11, single plate): 0 cm
Growth, M. Poae (M. poae; PDA with 12% (w/v) calcium propionate, day 15, single plate): 0 cm
Growth, M. Poae (M. poae; [5]): no growth
